Our source for the EC50 and inhibition values is patent US10195185B2, “3-(1H-imidazo[4,5-C]pyridin-2-yl)-1H-pyrazolo[4,3-B]pyridines and therapeutic uses thereof” (Samumed, LLC, priority 2015, dated 2019).

pEC50: −log10 of the molar value.

Assay [1] deals with IL-6 in human monocyte cell line (THP-1 cells). Put plainly: IL-6 inhibition in LPS-stimulated THP-1 cells (HTRF). Format: cell-based. To be noted: IL-6 in LPS-stimulated THP-1 cells; for pEC50: HTRF; for inhibition at 10 µM: read-out: percent inhibition in brackets beside EC50 >10 μM. In short, it runs like this: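 THP-1 cells, serum-reduced (1% FBS) for 24 h, were preincubated with compound (10-point 1:3 series from 10 μM, 0.1% DMSO) for 2 h, then stimulated with 500 ng/mL LPS for 22 h at 37° C. IL-6 was read by HTRF (665/620 nm ratio) and normalized to DMSO. EC50 from four-parameter fit; % inhibition at 10 μM given if EC50 >10 μM.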
In general terms: Time-resolved FRET reads energy transfer from a long-lived donor to a nearby acceptor.

For assay [2], the system named is Primary human fibroblasts derived from IPF patients (LL29 cells) treated with TGF-β1. Briefly: Inhibition of the fibrotic process: αSMA staining in TGF-β1 treated fibroblasts. Format: cell-based. The settings on record: Fibroblast, 96 h, LL29 fibroblasts treated with TGF-β1, 4 days; for inhibition at 10 µM: read-out: percent inhibition in brackets beside EC50 >10 μM. The essentials:
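Compound dilutions from 10 μM down to […] are dispensed, LL29 cells added in F12 with 1% FBS, and TGF-β1 (20 ng/mL) follows after 1 h. After 4 days, live-cell αSMA positivity is measured by immunofluorescence and normalized to TGF-β1-treated wells to derive EC50.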

Broadly, the pEC50 is the negative decadic logarithm of the EC50, by convention in mol/L. A low value points to a high EC50. The term inhibition denotes the change of the read-out against control, counted positive when it falls.

Take `CN(C)CCNc1cc(F)cc(-c2nccc3[nH]c(-c4n[nH]c5ccc(-c6cnccn6)nc45)nc23)c1` [Compound 792, N^1-(3-Fluoro-5-(2-(5-(pyrazin-2-yl)-1H-pyrazolo[4,3-b]pyridin-3-yl)-1H-imidazo[4,5-c]pyridin-4-yl)phenyl)-N^2,N^2-dimethylethane-1,2-diamine]: in assay [1], the negative-log EC50 (pEC50) is < 5.00 and the inhibition at 10 µM amounted to 32.6%. In assay [2], the pEC50 was < 5.00 and the inhibition at 10 µM was determined as 0%.

For the molecule `CN(C)CC(=O)Nc1cncc(-c2ccc3[nH]nc(-c4nc5c(-c6cccc(F)c6)nccc5[nH]4)c3n2)c1` [Compound 969, 2-(Dimethylamino)-N-(5-(3-(4-(3-fluorophenyl)-1H-imidazo[4,5-c]pyridin-2-yl)-1H-pyrazolo[4,3-b]pyridin-5-yl)pyridin-3-yl)acetamide], the pEC50 is < 5.00 in assay [1] and 5.79 in assay [2]. For the same molecule, in assay [1], the inhibition at 10 µM came out at 31.8%.

With `COc1cccc(-c2nccc3[nH]c(-c4n[nH]c5ccc(-c6cccnc6)nc45)nc23)c1` [Compound 994, 3-(4-(3-Methoxyphenyl)-1H-imidazo[4,5-c]pyridin-2-yl)-5-(pyridin-3-yl)-1H-pyrazolo[4,3-b]pyridine], in assay [1], the pEC50 is < 5.00 and the inhibition at 10 µM came out at 18.6%. Further, the pEC50 in assay [2] is 5.33.

`COc1cccc(-c2nccc3[nH]c(-c4n[nH]c5ccc(-c6cncc(NC(=O)Cc7ccccc7)c6)nc45)nc23)c1` [Compound 1000, N-(5-(3-(4-(3-methoxyphenyl)-1H-imidazo[4,5-c]pyridin-2-yl)-1H-pyrazolo [4,3-b]pyridin-5-yl)pyridin-3-yl)-2-phenylacetamide]: in assay [1], the pEC50 was < 5.00 and the inhibition at 10 µM was determined as 11.4%. The pEC50 in assay [2] is 5.59.

Regarding `COc1cccc(-c2nccc3[nH]c(-c4n[nH]c5ccc(-c6cncc(NC(=O)CC(C)(C)C)c6)nc45)nc23)c1` [Compound 1006, N-(5-(3-(4-(3-methoxyphenyl)-1H-imidazo[4,5-c]pyridin-2-yl)-1H-pyrazolo [4,3-b]pyridin-5-yl)pyridin-3-yl)-3,3-dimethylbutanamide], in assay [1], the pEC50 is < 5.00 and the inhibition at 10 µM is 32.3%. The same molecule gave a pEC50 in assay [2] of 5.60.

In the case of `COc1cccc(-c2nccc3[nH]c(-c4n[nH]c5ccc(-c6cn[nH]c6)nc45)nc23)c1` [Compound 1020, 3-(4-(3-Methoxyphenyl)-1H-imidazo[4,5-c]pyridin-2-yl)-5-(1H-pyrazol-4-yl)-1H-pyrazolo[4,3-b]pyridine], the negative logarithm of the EC50 (pEC50) in assay [1] and in assay [2] was < 5.00 in each case. Also, the inhibition at 10 µM in assay [1] and in assay [2] was 0% each time.

For the molecule `COc1cccc(-c2nccc3[nH]c(-c4n[nH]c5ccc(-c6cncc(OC7CCNCC7)c6)nc45)nc23)c1` [Compound 1025, 3-(4-(3-Methoxyphenyl)-1H-imidazo[4,5-c]pyridin-2-yl)-5-(5-(piperidin-4-yloxy)pyridin-3-yl)-1H-pyrazolo[4,3-b]pyridine], in assay [1], the pEC50 is < 5.00 and the inhibition at 10 µM stood at 26.9%. In assay [2], this molecule had a pEC50 of 5.48.

For `COc1cccc(-c2nccc3[nH]c(-c4n[nH]c5ccc(-c6cncc(O)c6)nc45)nc23)c1` [Compound 1030, 5-(3-(4-(3-Methoxyphenyl)-1H-imidazo[4,5-c]pyridin-2-yl)-1H-pyrazolo [4,3-b]pyridin-5-yl)pyridin-3-ol], the negative-log EC50 (pEC50) in assay [1] was 6.31; in assay [2], 5.01.

With `CC(C)CC(=O)Nc1cncc(-c2ccc3[nH]nc(-c4nc5c(-c6ccc(Cl)s6)nccc5[nH]4)c3n2)c1` [Compound 1037, N-(5-(3-(4-(5-Chlorothiophen-2-yl)-1H-imidazo[4,5-c]pyridin-2-yl)-1H-pyrazolo [4,3-b]pyridin-5-yl)pyridin-3-yl)-3-methylbutanamide], in assay [1], the pEC50 was < 5.00 and the inhibition at 10 µM was found to be 18.1%. Further, in assay [2], the negative logarithm of the EC50 (pEC50) was 6.11.

On to `CC(C)(C)C(=O)Nc1cncc(-c2ccc3[nH]nc(-c4nc5c(-c6ccc(Cl)s6)nccc5[nH]4)c3n2)c1` [Compound 1043, N-(5-(3-(4-(5-Chlorothiophen-2-yl)-1H-imidazo[4,5-c]pyridin-2-yl)-1H-pyrazolo[4,3-b]pyridin-5-yl)pyridin-3-yl)pivalamide], for which the pEC50 in assay [1] and in assay [2] was < 5.00 each time. The inhibition at 10 µM in assay [1] is 0%; in assay [2], 22%.

Turning to `Clc1ccc(-c2nccc3[nH]c(-c4n[nH]c5ccc(-c6cncc(CN7CCCC7)c6)nc45)nc23)s1` [Compound 1049, 3-(4-(5-Chlorothiophen-2-yl)-1H-imidazo[4,5-c]pyridin-2-yl)-5-(5-(pyrrolidin-1-ylmethyl)pyridin-3-yl)-1H-pyrazolo [4,3-b]pyridine], in assay [1], the pEC50 is < 5.00 and the inhibition at 10 µM came out at 13.2%. The molecule further gave a pEC50 in assay [2] of 5.93.

As to `O=C(Nc1cncc(-c2ccc3[nH]nc(-c4nc5c(-c6ccc(Cl)s6)nccc5[nH]4)c3n2)c1)C1CCC1` [Compound 1056, N-(5-(3-(4-(5-Chlorothiophen-2-yl)-1H-imidazo[4,5-c]pyridin-2-yl)-1H-pyrazolo[4,3-b]pyridin-5-yl)pyridin-3-yl)cyclobutanecarboxamide], in assay [1], the pEC50 was < 5.00 and the inhibition at 10 µM is 0%. This molecule also showed a pEC50 in assay [2] of 5.65.

Take `NC1CN(c2cncc(-c3ccc4[nH]nc(-c5nc6c(-c7ccc(Cl)s7)nccc6[nH]5)c4n3)n2)C1` [Compound 1068, 1-(6-(3-(4-(5-Chlorothiophen-2-yl)-1H-imidazo[4,5-c]pyridin-2-yl)-1H-pyrazolo[4,3-b]pyridin-5-yl)pyrazin-2-yl)azetidin-3-amine]: the pEC50 in assay [1] was < 5.00; in assay [2] it was 5.40. Besides, in assay [1], the inhibition at 10 µM was 19.2%.

Turning to `c1cc2[nH]c(-c3n[nH]c4ccc(C5CCNCC5)nc34)nc2c(-c2ccc3c(c2)OCO3)n1` [Compound 1108, 3-(4-(Benzo[d][1,3]dioxol-5-yl)-1H-imidazo[4,5-c]pyridin-2-yl)-5-(piperidin-4-yl)-1H-pyrazolo[4,3-b]pyridine], in assay [1], the pEC50 is < 5.00 and the inhibition at 10 µM amounted to 22.8%. In addition, in assay [2], the pEC50 was < 5.00 and the inhibition at 10 µM was 43.7%.

Take `Cc1ncc(-c2ccc3[nH]nc(-c4nc5c(-c6cccc(F)c6)nccc5[nH]4)c3n2)s1` [Compound 1126, 5-(3-(4-(3-Fluorophenyl)-1H-imidazo[4,5-c]pyridin-2-yl)-1H-pyrazolo[4,3-b]pyridin-5-yl)-2-methylthiazole]: in assay [1], the pEC50 was < 5.00 and the inhibition at 10 µM turned out to be 0%. The pEC50 in assay [2] was 6.69.

On to `Cn1cc(-c2ccc3[nH]nc(-c4nc5c(-c6ccc(F)cc6)nccc5[nH]4)c3n2)c(CO)n1` [Compound 1128, (4-(3-(4-(4-Fluorophenyl)-1H-imidazo[4,5-c]pyridin-2-yl)-1H-pyrazolo[4,3-b]pyridin-5-yl)-1-methyl-1H-pyrazol-3-yl)methanol], for which, in assay [1], the pEC50 was < 5.00 and the inhibition at 10 µM is 0%. In assay [2], this molecule had a pEC50 of 5.57.

On to `Cn1cc(-c2ccc3[nH]nc(-c4nc5c(N6CCCCC6)nccc5[nH]4)c3n2)c(CO)n1` [Compound 1133, (1-Methyl-4-(3-(4-(piperidin-1-yl)-1H-imidazo[4,5-c]pyridin-2-yl)-1H-pyrazolo [4,3-b]pyridin-5-yl)-1H-pyrazol-3-yl)methanol], for which, in assay [1], the pEC50 was < 5.00 and the inhibition at 10 µM was determined as 0%. In assay [2], this molecule had a pEC50 of 5.97.

On to `Cn1cc(-c2ccc3[nH]nc(-c4nc5c(-c6ccc7c(c6)OCO7)nccc5[nH]4)c3n2)c(CO)n1` [Compound 1151, (4-(3-(4-(Benzo[d][1,3]dioxol-5-yl)-1H-imidazo[4,5-c]pyridin-2-yl)-1H-pyrazolo [4,3-b]pyridin-5-yl)-1-methyl-1H-pyrazol-3-yl)methanol], for which, in assay [1], the pEC50 was < 5.00 and the inhibition at 10 µM was found to be 0%. Also, in assay [2], the pEC50 is < 5.00 and the inhibition at 10 µM is 0%.
